Experimental data from patent US9006459B2, “Fluorescent markers and use thereof for labeling specific protein targets” (University of Ottawa, priority 2010, dated 2015).

Assays:
[1] = Fluorescence enhancement (FE) ratio upon reaction with excess MPA; assay type: physicochemical; conditions: for FE (fluorescence enhancement ratio): HEPES (pH 7.4)/DMSO 5%, final divided by initial fluorescence intensity
Description: (§1) Spectroscopic characterization of fluorogen 5 included absorbance and fluorescence emission maxima as well as the fluorescence enhancement (FE) ratio. The spectroscopic characteristics were evaluated in two solvent systems (DMSO and HEPES (pH 7.4)/5% DMSO). The FE ratio determination was carried out by reacting 5 with excess mercaptopropionic acid (MPA) and then dividing the final fluorescence by the initial fluorescence intensity, at a specific fluorogen concentration.
Determination of Fluorescence Enhancement Ratios
(§2) Absorbance spectra were recorded at 25° C., with a Cary-100 spectrometer. Emission spectra and fluorescence intensity measurements were recorded at 25° C. with a Cary Eclipse fluorometer. Excitation and emission slits were fixed at 5 nm
3-Mercaptopropionic acid (50 eq) was added to a 1 to 4 mM DMSO solution of fluorogen. The resulting mixture was stirred at 25° C., in the dark for 18 hours after which fluorescence intensities of a dilution in HEPES buffer (pH 7.4) were recorded. Final fluorescence intensity was then divided by the initial florescence intensity at the same fluorogen concentration leading to the fluorescence enhancement ratio for the fluorogen.

[2] = Photophysical properties (absorbance/excitation and fluorescence emission maxima, fluorescence intensity); assay type: physicochemical; conditions: for initial fluorescence intensity: before reaction with MPA
Description: as §1, §2

λem MPA adduct ([2]; di-MPA adduct in HEPES/DMSO 5%) [nm]	λex MPA adduct ([2]; di-MPA adduct in HEPES/DMSO 5%) [nm]	λem ([2]; fluorogen in HEPES/DMSO 5%) [nm]	λex ([2]; fluorogen in HEPES/DMSO 5%) [nm]	melting point [°C]	initial fluorescence intensity ([2]; aqueous media (HEPES/5% DMSO))	λem MPA adduct ([2]; di-MPA adduct in DMSO) [nm]	λex MPA adduct ([2]; di-MPA adduct in DMSO) [nm]	λem ([2]; fluorogen in DMSO) [nm]	λex ([2]; fluorogen in DMSO) [nm]	initial fluorescence intensity ([2]; pure DMSO)	Compound	FE (fluorescence enhancement ratio) [1]	fluorescence intensity increase upon reaction with MPA ([1]; pure DMSO)
–	–	–	–	–	–	–	–	–	–	–	8-(2′,6′-di-((4″-(3-methylmaleimido)phenyl)ethynyl))-4,4-difluoro-4-bora-3a,4a-diaza-s-indacene [Fluorogen 17]	6.4	–
520	325	520	325	230	at the level of the background noise	540	350	540	345	approximately 2	CC1=CC(=O)N(c2cc(NS(=O)(=O)c3cccc4c(N(C)C)cccc34)cc(N3C(=O)C=C(C)C3=O)c2)C1=O [Fluorogen 5, N-Dansyl-3,5-di-(3-methylmaleimido)aniline]	–	over 300 fold
404	347	404	347	–	–	–	–	–	–	–	COc1ccc2cc(C(=O)NCc3cc(N4C(=O)C=C(C)C4=O)cc(N4C(=O)C=C(C)C4=O)c3)c(=O)oc2c1 [Fluorogen 11, 7-Methoxy-3-(3,5-di-(3-methylmaleimido)benzyl)aminocarbonyl coumarin]	6.4	–

Compound	λem MPA adduct ([2]; di-MPA adduct in HEPES/DMSO 5%) [nm]	λex MPA adduct ([2]; di-MPA adduct in HEPES/DMSO 5%) [nm]	λem ([2]; fluorogen in HEPES/DMSO 5%) [nm]	λex ([2]; fluorogen in HEPES/DMSO 5%) [nm]	melting point [°C]	initial fluorescence intensity ([2]; aqueous media (HEPES/5% DMSO))	λem MPA adduct ([2]; di-MPA adduct in DMSO) [nm]	λex MPA adduct ([2]; di-MPA adduct in DMSO) [nm]	λem ([2]; fluorogen in DMSO) [nm]	λex ([2]; fluorogen in DMSO) [nm]	initial fluorescence intensity ([2]; pure DMSO)	FE (fluorescence enhancement ratio) [1]	fluorescence intensity increase upon reaction with MPA ([1]; pure DMSO)
8-(3′,5′-di-(3-methylmaleimido)-phenyl-4,4-difluoro-4-bora-3a,4a-diaza-s-indacene [Fluorogen 13]	514	510	514	510	–	–	–	–	–	–	–	3.5	–
